Measurements published in patent publication EP0098942A1, “Optically active imidazolylpropanol compounds, and their production and use” (SUMITOMO CHEMICAL COMPANY, LIMITED, priority 1982, dated 1984).

Legend:
[1] = test system: Candida albicans, strain KB-8 (clinical isolate); experiment: In vitro inhibition of pseudomycelium formation; format: cell-based; settings: effective dose to inhibit formation of pseudomycelium, light microscopy at 72 hours after inoculation, Eagle's MEM, 37°C, 5 % CO2, read-out: Minimum effective dose
Procedure: Candida albicans, strain KB-8 (clinical isolate), was maintained on Sabouraud's agar slants at room temperature. Yeast cells were grown at 37°C on Sabouraud's agar and a loopful from a 24 hours' slant was inoculated in 4.5 ml of Sabouraud's broth and cultured at 37°C for 24 hours. A 0.5 ml aliquot of this culture was inoculated in 100 ml of a casein hydrolysate yeast-extract glucose medium (CYG medium). Cells were grown at 37°C aerobically in a reciprocating shaker for 48 hours. From this culture, a 0.2 ml aliquot was again inoculated in 100 ml CYG medium and grown for another 24 hours at 37°C while shaking.
The pseudomycelium growth-promoting medium consisted of Eagle's minimal essential medium supplemented with non-essential amino acids and sodium bicarbonate (2 g/liter). Yeast cells were seeded at densities of 1.0 x 10^5/ml in sterile culture tubes (010 x 100 mm) containing 3 ml of medium. Cells were grown in a humidified atmosphere of 5 % C02 in air at 37°C.
The effects of the test compound were evaluated . under the following conditions: the cultures were exposed to the test compound in doses ranging from […] to 10^-4 M; the solvent for the test compound was added as an aqueous solution. Pseudomycelium development was observed by light microscopy at 72 hours after inoculation.

Candida albicans KB-8 = experiment: Number of viable cells in the kidney of Candida-infected mice; format: in vivo, DDY strain male mice; settings: per os, total dose 20 mg/kg; for Medicated group, number of cells in kidney (cell/g): given immediately and 5 hours after infection, kidneys taken 24 hours after infection; for Medicated/ Non-medicated (logarithmic value): kidney cell count 24 hours after infection, non-medicated group 1.45x10^5 cell/g
Procedure: Candida albicans KB-8 was cultured on a Sabouraud's agar plate admixed with blood in a concentration of 5 % (v/v) - at 30°C for 4 days, suspended in physiologically saline solution and diluted to approximately 10,000,000 cells/ml. DDY strain male mice were […] via the tail vein with 0.2 ml of this suspension.
The animals were orally medicated with the test compound in the form of 0,5 % (w/v) methylcellulose supension at a total dose of 20 mg per kg of the body weight immediately and 5 hours after the infection.
After 24 hours from the infection, the animals were sacrificed, and the kidneys were taken out. After the kidneys were homogenized in 4 fold sterilized physiologically saline solution, a certain amount of the suspension was scattered on a Sabouraud's agar plate and cultured at 37°C for 48 hours. Then, the number of colonies was counted, the number of cells per one gram of the kidney was calculated, and the difference between the calculated numbers in the medicated group and in the non- medicated group was expresed by a logarithmic value.

Structure (SMILES) | minimal effective concentration [1] [µM] | Medicated group, number of cells in kidney (cell/g) (Candida albicans KB-8) | Medicated/ Non-medicated (logarithmic value) (Candida albicans KB-8)
CCCCSCC(O)(Cn1ccnc1)c1ccc(Cl)cc1Cl (racemic) [A] | 0.1 | 1.86x10^3 cell/g | -1.89
CCCCSC[C@@](O)(Cn1ccnc1)c1ccc(Cl)cc1Cl [B, (S)-3-(n-butylthio)-2-(2,4-dichlorophenyl)-1-(imidazol-1-yl)-2-propanol] | 1 | 1.82x10^4 cell/g | -0.90
CCCCSC[C@](O)(Cn1ccnc1)c1ccc(Cl)cc1Cl [I (n=3), (R)-3-(n-butylthio)-2-(2,4-dichlorophenyl)-1-(imidazol-1-yl)-2-propanol] | 0.001 | 1.41x10^3 cell/g | -2.01
